Values after ≈ are worked out from the molar mass of the structure shown.
What was measured:
Format in all cases: functional
L1210 [1] = assay: In vitro cytotoxicity against L1210 cells at a dose 50 ug/mL; conditions: Mus musculus, read-out: Survival
L1210 [2] = assay: In vitro cytotoxicity against L1210 cells at a dose 10 ug/mL; conditions: Mus musculus, read-out: Survival
Vero = assay: In vitro antiviral activity against herpes simplex virus type-1 in vero cells; conditions: Chlorocebus sabaeus, read-out: ID50 (the source's name)
L1210 [3] = assay: Effective dose against L1210 cells.; conditions: Mus musculus, read-out: ED50 (the source's name)

| Structure (SMILES) | viability at 50 µg/mL (L1210 [1]) [%] | viability at 10 µg/mL (L1210 [2]) [%] | IC50 (Vero) [µg/mL] | EC50 (L1210 [3]) [µg/mL] |
| --- | --- | --- | --- | --- |
| O=c1[nH]c(=O)n([C@H]2C[C@H](O)[C@@H](CO)O2)cc1C(Br)C(O)I.O=c1[nH]c(=O)n([C@H]2C[C@H](O)[C@@H](CO)O2)cc1C(O)C(Br)I (stereo partly specified) | 40.1 | 79.2 | > 10 | – |
| COC(CCl)c1cn([C@H]2C[C@H](O)[C@@H](CO)O2)c(=O)[nH]c1=O (stereo partly specified) | 38.8 | 75 | > 10 | – |
| COC(CBr)c1cn([C@H]2C[C@H](O)[C@@H](CO)O2)c(=O)[nH]c1=O (stereo partly specified) | 11.7 | 80.8 | 0.1 (≈ 0.274 µM) | – |
| O=c1[nH]c(=O)n([C@H]2C[C@H](O)[C@@H](CO)O2)cc1C(O)CCl (stereo partly specified) | 24.3 | 74 | 0.1 (≈ 0.326 µM) | – |
| O=c1[nH]c(=O)n([C@H]2C[C@H](O)[C@@H](CO)O2)cc1C(O)CBr (stereo partly specified) | 23.7 | 65.5 | > 10 | – |
| CCOC(=O)C(Br)C(O)c1cn([C@H]2C[C@H](O)[C@@H](CO)O2)c(=O)[nH]c1=O (stereo partly specified) | 4.9 | 49.7 | 1 (≈ 2.36 µM) | 11 (≈ 26 µM) |
| CCOC(=O)C(I)C(O)c1cn([C@H]2C[C@H](O)[C@@H](CO)O2)c(=O)[nH]c1=O (stereo partly specified) | 10.4 | 73.2 | 0.1 (≈ 0.213 µM) | – |
| Nc1nc2c(ncn2COCCO)c(=O)[nH]1 [ACYCLOVIR] | – | – | 0.01 (≈ 0.0444 µM) | – |
| N[C@@H](Cc1ccc(N(CCCl)CCCl)cc1)C(=O)O [MELPHALAN] | 0 | 2.8 | – | 0.15 (≈ 0.491 µM) |

— ChEMBL document CHEMBL1124466, “Synthesis of 5-[1-hydroxy(or methoxy)-2-bromo(or chloro)ethyl]-2'-deoxyuridines and related halohydrin analogues with antiviral and cytotoxic activity” (1989)
